According to patent publication US12616204B2, “Use of cationic porphyrins as selective herbicide” (UNIVERSITE DE LIMOGES, priority 2021, dated 2026):
“Also recorded” adds a separate entry of the source.

Columns and labels:
fishing worms (maggots) = experiment: Non-toxicity to fishing worms (maggots), viability after spraying; assay type: in vivo; conditions: for toxicity to fishing worms (maggots): summary statement
Method: The maggots were placed in Petri dishes under a photoperiod (16 h) or under dark conditions in a phytotron (24° C.) for 24 h. […] The percentage viability was determined after 24 h.

[1] = test system: tomato seedlings (Solanum lycopersicum); conditions: 16-hour photoperiod, Guillaumot et al. 2016; cited from earlier work
Barley (Hordeum sativum) [2] = experiment: In vitro cultivation on Zn-TMPyP-rich medium, barley; assay type: in vivo; conditions: 3.5 μM Zn-TMPyP-rich medium
Method: (§1) The sterilization of the seeds is carried out according to the following protocol. Surface sterilization is first performed with 70% (v/v) ethanol for 2 minutes at ambient temperature. The ethanol is removed and the seeds are immersed in 20% (v/v) sodium hypochlorite for 15-20 minutes and then thoroughly rinsed with sterile water. The barley caryopses are left in the water for at least one hour before cultivation.
(§2) The germination medium for all of the seeds is Gamborg's synthetic medium, also referred to as B5, (Duchefa Biochemie, Haarlem, the Netherlands), supplemented with 2% sucrose (w/v) and solidified with 0.8% agar (Difco, Dallas, USA). The pH is adjusted to 5.8 with 1 M sodium hydroxide before autoclaving. After autoclaving (120° C., 20 minutes, 1 bar) and cooling of the medium in Petri dishes and/or jars, porphyrin is added at the desired concentration. After sterilization, the seeds are deposited on the solidified B5 medium containing or not containing the porphyrin, under a laminar flow hood. The Petri dishes and jars are placed in culture chambers (16 h photoperiod, 22° C., photon flux density ˜100 μmol·m^−2·s^−1 generated by cool daylight lamps (OSRAM Lumilux 24W)). The jars are used for the transfer of the seedlings and allow them to grow more appropriately. […]

[3] = test system: Tomato Solanum lycopersicum var Marmande; experiment: In vitro cultivation on Zn-TMPyP-rich medium, tomato; assay type: in vivo; conditions: 3.5 μM Zn-TMPyP-rich medium, after 22 days, compared with control
Method: as §1, §2

[4] = test system: Potato (Solanum tuberosum) cultivar: Coquine; experiment: In vitro cultivation on Zn-TMPyP-treated medium, potato explants; assay type: in vivo; conditions: treated medium (3.5 μM Zn-TMPyP) compared to control
Method: (§3) Explants are propagated in a sterile manner from 1-month old seedlings for potato and two-month old seedlings for grapevines. The potato explants are propagated on a Murashige and Skoog synthetic medium supplemented with 2% sucrose and myo-inositol ((100 mg/L), pH 5.8. The grapevine explants are cultivated on ½ Chee and Pool medium supplemented with 2% sucrose, pH 5.9. The media are solidified with 0.8% Sobigel. Both media are supplied by Duchefa Biochemie, Haarlem, the Netherlands. The media are autoclaved as described above for the B5 medium. The grapevine explants are placed in a culture chamber at 25° C. and those of potato at 23° C., the same photoperiod and light intensity as for the seed germinations.

[5] = test system: Tobacco (Nicotiana benthamiana); experiment: In vitro cultivation on Zn-TMPyP-rich medium, tobacco; assay type: in vivo; conditions: 3.5 μM Zn-TMPyP-rich medium, one-and-a-half months of cultivation
Method: as §1
(§4) The germination medium for all of the seeds is Gamborg's synthetic medium, also referred to as B5, (Duchefa Biochemie, Haarlem, the Netherlands), supplemented with 2% sucrose (w/v) and solidified with 0.8% agar (Difco, Dallas, USA). The pH is adjusted to 5.8 with 1 M sodium hydroxide before autoclaving. After autoclaving (120° C., 20 minutes, 1 bar) and cooling of the medium in Petri dishes and/or jars, porphyrin is added at the desired concentration. After sterilization, the seeds are deposited on the solidified B5 medium containing or not containing the porphyrin, under a laminar flow hood. The Petri dishes and jars are placed in culture chambers (16 h photoperiod, 22° C., photon flux density ˜100 μmol·m^−2·s^−1 generated by cool daylight lamps (OSRAM Lumilux 24W)). The jars are used for the transfer of the seedlings and allow them to grow more appropriately.

[6] = test system: Grapevine (Vitis vinifera) cultivar: Sauvignon (clone 379); experiment: In vitro cultivation on Zn-TMPyP-rich medium, grapevine explants; assay type: in vivo; conditions: 3.5 μM Zn-TMPyP-rich medium, two months of cultivation
Method: as §3

[7] = test system: Common nettle Urtica dioica; experiment: In vitro cultivation on Zn-TMPyP-treated medium, nettle; assay type: in vivo; conditions: medium with Zn-TMPyP 3.5 μM, after 18 days
Method: as §1, §4

[8] = test system: Arabidopsis thaliana ws ecotype; experiment: In vitro cultivation on Zn-TMPyP-treated medium, Arabidopsis; assay type: in vivo; conditions: medium with Zn-TMPyP 3.5 μM, after 1 month
Method: as §1, §4

Poppy (Papaver rhoeas) [9] = experiment: In vitro cultivation on Zn-TMPyP-treated medium, poppy; assay type: in vivo; conditions: 3.5 μM Zn-TMPyP, after 6 weeks
Method: as §1, §4

[10] = test system: antioxidant machinery (total thiols, catalase, guaiacol peroxidase) of tomato seedlings; experiment: Total thiols, catalase and guaiacol peroxidase in tomato seedlings cultivated in vitro; assay type: in vivo, Solanum lycopersicum; conditions: tomato seedlings cultivated in vitro on 3.5 μM Zn-TMPyP-rich medium, 1 month
[11] = test system: adventitious plants (goosefoot, proso millet, rye-grass, dock, black nightshade, dandelion, chickweed); experiment: Example 4 greenhouse foliar spraying test, adventitious plants; assay type: in vivo; conditions: after 6 weeks
Method: (§5) Additional tests in a greenhouse were carried out. […] The treatments started at the cotyledon stage. The harvesting was carried out 6 weeks after germination (and 10 weeks for barley).

[12] = test system: plants of interest (tomato, barley, wheat, spinach, turnip, corn, onion, sunflower); experiment: Example 4 greenhouse foliar spraying test, plants of interest; assay type: in vivo; conditions: 5 foliar sprayings 48 h apart, regardless of concentration (50, 75, 100 μM), after 6 weeks (10 for barley)
Method: as §5

[13] = test system: Spinach (Spinacia oleracea); experiment: Example 4 greenhouse foliar spraying test, spinach; assay type: in vivo; conditions: 5 foliar sprayings 48 h apart, 50, 75, 100 μM, after 6 weeks
Method: as §5

Poppy (Papaver rhoeas) [14] = experiment: Greenhouse foliar spraying test, poppy; conditions: foliar spraying 50 μM Zn-TMPyP
Method: (§6) The various seeds are cultivated in a greenhouse in commercial compost (universal compost, Fertiligene). The seeds were sown in the greenhouse under controlled temperature and humidity conditions (the temperature varies between 15° C. and 30° C. depending on the season, and the relative humidity varies from 50 to 70%).
(§7) Two spot treatments (about 10 sprays each) spaced 48 h apart were carried out one week after germination. The first treatment was carried out when the seedlings were in the cotyledon stage, the second when the seedlings were in the first-leaf stage.
(§8) The seedlings were monitored every 48 h. The control medium was sprayed with water at the same frequency.

Barley (Hordeum sativum) [15] = experiment: Greenhouse foliar spraying test, barley; conditions: foliar spraying 50 μM Zn-TMPyP, two treatments 48 h apart, after one month and two months
Method: as §6, §7, §8

[16] = test system: Tomato Solanum lycopersicum var Marmande; experiment: Greenhouse foliar spraying test, tomato; conditions: foliar spraying 50 μM Zn-TMPyP, two treatments 48 h apart, after one month and two months
Method: as §6, §7, §8

[17] = test system: Millet Echinochloa frumentacea; experiment: Greenhouse foliar spraying test, millet; conditions: foliar spraying 50 μM Zn-TMPyP, two treatments 48 h apart, after one month and two months
Method: as §6, §7, §8

[18] = Photostability/photodegradation test in water (Soret band, UV-visible spectrometry); conditions: solution without surfactant, photoperiod 16 h light/8 h dark
Excerpt: Monitoring the intensity of the Soret band as a function of the irradiation time makes it possible to calculate the percentage of degraded porphyrins.

[19] = test system: antioxidant enzymes and molecules (total thiols, catalase, guaiacol peroxidase) of tomato seedlings; experiment: Total thiols, catalase and guaiacol peroxidase in greenhouse tomato seedlings after foliar application; conditions: foliar application of 50 μM Zn-TMPyP, two months
Method: Seedlings (roots and aerial parts separated before freezing) are ground in liquid nitrogen. The powder is transferred into an Eppendorf tube and weighed (between 200 and 100 mg per extraction). The extract is acidified with 0.2 N vortexed HCl and centrifuged (13 000 g 10 min 4° C.). 500 μL of the supernatant is neutralized with 400 μL of NaOH (0.2 N) and 50 μL of Na2HPO4. Then, 700 μL of 0.12 M Na2HPO4, 6 mM EDTA and 6 mM DTNB are added to 200 μL of the neutralized solution. After establishing a glutathione range, the total thiols contained in the samples are determined by UV-vis spectrometry at 412 nm and related to the fresh weight.
Seedlings (roots and aerial parts separated before freezing) are ground in liquid nitrogen. […]
Catalase activity is quantifiable by measuring the disappearance of H2O2 by disproportionation into H2O and O2. […] The kinetics of the disappearance of H2O2 are measured for 200 seconds every 20 seconds at 240 nm. The activity is calculated using the molar extinction coefficient of H2O2 which is 43.6 mM^−1·cm^−1.
Its activity is measured by the oxidation of guaiacol in the presence of H2O2. […] The kinetics of the appearance of the oxidized guaiacol are measured for 120 seconds every 10 seconds at 436 nm. The activity is calculated using the molar extinction coefficient of H2O2 which is 25.5 mM^−1·cm^−1.

**Q.** For “tetra(N-methylpyridyl)porphyrin tetrachloride [TMPyP]”, which “toxicity to fishing worms (maggots)” value (fishing worms (maggots)) is on record?
**A.** non-toxicity

**Q.** And the “tomato seedling growth in vitro” value [1]?
**A.** significantly altered

**Q.** With “zinc tetra(N-methylpyridyl)porphyrin tetrachloride [Zn-TMPyP]” as the substance, how does the “appearance of barley leaves” value (Barley (Hordeum sativum) [2]) read?
**A.** yellowing followed by wilting

**Q.** What about the “growth of the barley” value (Barley (Hordeum sativum) [2]; after one month of cultivation) of the same substance?
**A.** adversely impacted

**Q.** What about the development of tomato [3] of the same substance?
**A.** significantly inhibited

**Q.** And the “growth of potato at the stem and roots” value [4]?
**A.** slight growth retardation

**Q.** What about the “development of tobacco seedlings” value [5] of the same substance?
**A.** considerable inhibition

**Q.** What about the “development of grapevine seedlings” value [6] of the same substance?
**A.** considerable inhibition

**Q.** And the growth of nettle [7]?
**A.** very significant inhibition

**Q.** What about the “growth of Arabidopsis” value [8] of the same substance?
**A.** very significant inhibition

**Q.** And the “response of poppy seedlings” value (Poppy (Papaver rhoeas) [9])?
**A.** remarkable adverse impact and inhibition

**Q.** What about the “antioxidant machinery (total thiols, catalase, guaiacol peroxidase)” value [10] of the same substance?
**A.** significantly inhibited

**Q.** What about the “effect on viability of maggots (fishing worms)” value (fishing worms (maggots); spraying of 50 μM Zn-TMPyP, 24 h, in the presence and in the absence of light) of the same substance?
**A.** harmlessness

**Q.** And the “toxicity to fishing worms (maggots)” value (fishing worms (maggots))?
**A.** non-toxicity

**Q.** And the “growth of the adventitious plants” value ([11]; 5 foliar sprayings 48 h apart, C1=50, C2=75, C3=100 μM, dose-dependent or at a specific dose)?
**A.** drastically adversely impacts

**Q.** And the “destruction of the adventitious plants” value ([11]; 5 foliar sprayings, certain concentrations (of 50, 75, 100 μM))?
**A.** completely destroy

**Q.** What about the “growth of the plants of interest” value [12] of the same substance?
**A.** grow perfectly

**Q.** What about the growth of spinach [13] of the same substance?
**A.** slightly affected

**Q.** And the “tomato seedling growth in vitro” value [1]?
**A.** significantly altered

**Q.** And the “time to first symptoms after the first treatment” value (Poppy (Papaver rhoeas) [14]; adventitious plants (poppy, millet))?
**A.** 24 h

**Q.** And the “time until the poppy is destroyed after the first treatment” value (Poppy (Papaver rhoeas) [14]; first 10 sprayings)?
**A.** 48 h

**Q.** What about the “herbicidal effect on poppy” value (Poppy (Papaver rhoeas) [14]; two treatments 48 h apart, after one month and two months) of the same substance?
**A.** completely dead; also recorded: completely destroyed

**Q.** What about the “growth of barley (plant of interest)” value (Barley (Hordeum sativum) [15]) of the same substance?
**A.** grow perfectly

**Q.** What about the “growth of tomato (plant of interest)” value [16] of the same substance?
**A.** grow perfectly

**Q.** What about the “herbicidal effect on millet” value [17] of the same substance?
**A.** completely dead

**Q.** What about the “days of photoperiod after which the solution disappears” value [18] of the same substance?
**A.** 29 days

**Q.** And the “antioxidant enzymes and molecules” value [19]?
**A.** remain constant

**Q.** And the “thiols in the roots” value [19]?
**A.** increase
